molecular target: Trypsin (Homo sapiens, UniProt P07477+P07478+P35030); test: Inhibition of human trypsin using Boc-Gln-Ala-Arg-MCA as substrate preincubated for 10 mins followed by substrate addition measured after 30 mins by fluorescence assay; type: protein assay

IC50 [nM] | SMILES
> 30000 | COc1ccc(Cl)cc1C[C@@H]1CN/C(=N\N(C)C)CN([C@@H](C)C(=O)Nc2cccc(-c3cnn(C)c3)c2)C1=O
> 30000 | COc1ccc(Cl)cc1C[C@@H]1CN/C(=N\N(C)C)CN(CC(=O)Nc2cccc(-c3cnn(C)c3)c2)C1=O
> 30000 | CCC[C@@H](C(=O)Nc1cccc(-c2cnn(C)c2)c1)N1C/C(=N/N(C)C)NC[C@@H](Cc2cc(Cl)ccc2OC)C1=O

molecular target: T1, Kallikrein-5 (Homo sapiens, UniProt Q9Y337); test: Inhibition of recombinant human KLK5 using Boc-Val-Pro-Arg-MCA as substrate preincubated for 10 mins followed by substrate addition measured after 30 mins by fluorescence assay
T1 sequence (Q9Y337 whole entry): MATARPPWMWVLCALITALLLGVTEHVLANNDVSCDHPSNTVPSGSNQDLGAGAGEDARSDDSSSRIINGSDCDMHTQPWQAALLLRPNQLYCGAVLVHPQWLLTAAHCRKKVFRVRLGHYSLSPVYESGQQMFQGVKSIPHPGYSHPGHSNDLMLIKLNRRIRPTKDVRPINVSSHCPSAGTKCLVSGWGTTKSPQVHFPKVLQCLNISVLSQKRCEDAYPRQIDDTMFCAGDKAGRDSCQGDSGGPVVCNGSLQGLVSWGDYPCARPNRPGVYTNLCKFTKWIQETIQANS

IC50 [nM] | SMILES
> 30000 | COc1ccc(Cl)cc1C[C@@H]1CN/C(=N\N(C)C)CN([C@@H](C)C(=O)Nc2cccc(-c3cnn(C)c3)c2)C1=O
> 30000 | COc1ccc(Cl)cc1C[C@@H]1CN/C(=N\N(C)C)CN(CC(=O)Nc2cccc(-c3cnn(C)c3)c2)C1=O
> 30000 | CCC[C@@H](C(=O)Nc1cccc(-c2cnn(C)c2)c1)N1C/C(=N/N(C)C)NC[C@@H](Cc2cc(Cl)ccc2OC)C1=O

test system: not listed separately; test: Inhibition of human chymotrypsin using Suc-Ala-Ala-Pro-Phe-MCA as substrate preincubated for 10 mins followed by substrate addition measured after 30 mins by fluorescence assay

IC50 [nM] | SMILES
3100 | COc1ccc(Cl)cc1C[C@@H]1CN/C(=N\N(C)C)CN([C@@H](C)C(=O)Nc2cccc(-c3cnn(C)c3)c2)C1=O
> 30000 | COc1ccc(Cl)cc1C[C@@H]1CN/C(=N\N(C)C)CN(CC(=O)Nc2cccc(-c3cnn(C)c3)c2)C1=O
1300 | CCC[C@@H](C(=O)Nc1cccc(-c2cnn(C)c2)c1)N1C/C(=N/N(C)C)NC[C@@H](Cc2cc(Cl)ccc2OC)C1=O

molecular target: Kallikrein-7 (Homo sapiens, UniProt P49862); test: Inhibition of recombinant human KLK7 using MOCAc-Arg-Pro-Lys-Pro-Val-Glu-Nva-Trp-Arg-Lys(Dnp)-NH2 as substrate preincubated for 10 mins followed by substrate addition measured after 30 mins by fluorescence assay
Sequence (P49862 whole entry): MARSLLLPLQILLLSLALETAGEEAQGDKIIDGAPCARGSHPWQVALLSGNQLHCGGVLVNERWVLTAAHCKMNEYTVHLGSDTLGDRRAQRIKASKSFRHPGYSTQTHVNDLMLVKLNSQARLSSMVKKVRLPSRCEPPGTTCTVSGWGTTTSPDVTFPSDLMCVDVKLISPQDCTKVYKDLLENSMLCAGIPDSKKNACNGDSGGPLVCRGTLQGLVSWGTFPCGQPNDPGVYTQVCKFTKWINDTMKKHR

SMILES | IC50 [nM]
COc1ccc(Cl)cc1C[C@@H]1CN/C(=N\N(C)C)CN(CC(=O)Nc2cccc(C(F)(F)F)c2)C1=O | 4300
COc1ccc(Cl)cc1C[C@@H]1CN/C(=N\N(C)C)CN(CC(=O)Nc2cccc(S(=O)(=O)N(C)C)c2)C1=O | 990
COc1ccc(Cl)cc1C[C@@H]1CN/C(=N\N(C)C)CN(CC(=O)Nc2cccc(C(=O)N(C)C)c2)C1=O | 2500
COc1cccc(NC(=O)CN2C/C(=N/N(C)C)NC[C@@H](Cc3cc(Cl)ccc3OC)C2=O)c1 | 2700
COc1ccc(Cl)cc1C[C@@H]1CN/C(=N\N(C)C)CN(CC(=O)Nc2cccc(S(=O)(=O)C(F)(F)F)c2)C1=O | 3900
CNC(=O)c1cccc(NC(=O)CN2C/C(=N/N(C)C)NC[C@@H](Cc3cc(Cl)ccc3OC)C2=O)c1 | 940
COc1ccc(Cl)cc1C[C@@H]1CN/C(=N\N(C)C)CN(CC(=O)Nc2cccc(C#N)c2)C1=O | 5300
CCC[C@H](C(=O)Nc1cccc(-c2cnn(C)c2)c1)N1C/C(=N/N(C)C)NC[C@@H](Cc2cc(Cl)ccc2OC)C1=O | 7000
COc1ccc(Cl)cc1C[C@@H]1CN/C(=N\N(C)C)CN(CC(=O)Nc2cccc(-c3ccsc3)c2)C1=O | 1500
CC[C@H](C(=O)Nc1cccc(-c2cnn(C)c2)c1)N1C/C(=N/N(C)C)NC[C@@H](Cc2cc(Cl)ccc2OC)C1=O | 2800
CCCC[C@H](C(=O)Nc1cccc(-c2cnn(C)c2)c1)N1C/C(=N/N(C)C)NC[C@@H](Cc2cc(Cl)ccc2OC)C1=O | 4100

More lines, in order of falling IC50, values ahead:

IC50 [nM] | SMILES
920 | COc1ccc(Cl)cc1C[C@@H]1CN/C(=N\N(C)C)CN([C@H](C)C(=O)Nc2cccc(-c3cnn(C)c3)c2)C1=O
870 | COc1ccc(Cl)cc1C[C@@H]1CN/C(=N\N(C)C)CN(CC(=O)Nc2cccc(-c3cccs3)c2)C1=O
670 | COc1ccc(Cl)cc1C[C@@H]1CN/C(=N\N(C)C)CN(CC(=O)Nc2cccc(-c3ccoc3)c2)C1=O
590 | COc1ccc(Cl)cc1C[C@@H]1CN/C(=N\N(C)C)CN(CC(=O)Nc2cccc(-c3ccco3)c2)C1=O
520 | COc1ccc(Cl)cc1C[C@@H]1CN/C(=N\N(C)C)CN(CC(=O)Nc2cccc(-c3cnn(C)c3)c2)C1=O
450 | CC[C@@H](C(=O)Nc1cccc(-c2cnn(C)c2)c1)N1C/C(=N/N(C)C)NC[C@@H](Cc2cc(Cl)ccc2OC)C1=O
110 | CCCC[C@@H](C(=O)Nc1cccc(-c2cnn(C)c2)c1)N1C/C(=N/N(C)C)NC[C@@H](Cc2cc(Cl)ccc2OC)C1=O
58 | COc1ccc(Cl)cc1C[C@@H]1CN/C(=N\N(C)C)CN([C@@H](C)C(=O)Nc2cccc(-c3cnn(C)c3)c2)C1=O
48 | CCC[C@@H](C(=O)Nc1cccc(-c2cnn(C)c2)c1)N1C/C(=N/N(C)C)NC[C@@H](Cc2cc(Cl)ccc2OC)C1=O

Reference: ChEMBL document CHEMBL4219155, “Structure-based drug design of 1,3,6-trisubstituted 1,4-diazepan-7-ones as selective human kallikrein 7 inhibitors” (Bioorg Med Chem Lett, 2018)
